Experiments:
RRM2, γH2AX = assay: Western blot of L363 lysates for RRM2 and DNA damage marker; conditions: L363, 48 hours; sirolimus 10 nM, entinostat 0.5 μM, Triapine 1 μM
Procedure: (§1) L363 cell viability after 48 hour treatment with triapine and/or sirolimus. Significance between treatments was determined by repeated measures ANOVA with the Bonferroni correction.

L363 cells = assay: L363 cell viability after triapine and/or sirolimus; conditions: L363, 48 hour treatment
Procedure: as §1

HDAC2 = HDAC2 (Homo sapiens, UniProt Q92769); conditions: cited from earlier work
HDAC1 = HDAC1 (Homo sapiens, UniProt Q13547); conditions: cited from earlier work
[1] = test system: cleaved PARP, BCL-xL, Survivin; assay: Western blot of apoptosis proteins (U266, L363 lysates); format: cell-based, human; conditions: U266 or L363 lysates, 48 hours
Procedure: In sequential experiments, the first agent listed was added 24 hours prior to the addition of the second agent.
Western blot of control, single agent, and combination treated (D) L363 or (E) U266 cells at 48 hours.

Sequence of HDAC1 (Q13547 whole entry): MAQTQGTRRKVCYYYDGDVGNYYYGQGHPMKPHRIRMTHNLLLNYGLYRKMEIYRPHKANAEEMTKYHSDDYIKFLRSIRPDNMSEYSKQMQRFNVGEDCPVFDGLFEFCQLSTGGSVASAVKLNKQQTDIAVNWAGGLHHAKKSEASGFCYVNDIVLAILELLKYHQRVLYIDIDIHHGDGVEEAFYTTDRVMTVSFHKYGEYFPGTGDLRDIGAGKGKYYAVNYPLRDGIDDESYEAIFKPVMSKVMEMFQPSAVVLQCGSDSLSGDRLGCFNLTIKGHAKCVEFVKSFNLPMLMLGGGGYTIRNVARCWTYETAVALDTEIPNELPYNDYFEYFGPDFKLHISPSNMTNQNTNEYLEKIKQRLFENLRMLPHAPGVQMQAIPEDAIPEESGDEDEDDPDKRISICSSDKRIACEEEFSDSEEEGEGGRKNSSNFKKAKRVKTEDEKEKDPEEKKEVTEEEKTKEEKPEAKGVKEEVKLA
Sequence of HDAC2 (Q92769 whole entry): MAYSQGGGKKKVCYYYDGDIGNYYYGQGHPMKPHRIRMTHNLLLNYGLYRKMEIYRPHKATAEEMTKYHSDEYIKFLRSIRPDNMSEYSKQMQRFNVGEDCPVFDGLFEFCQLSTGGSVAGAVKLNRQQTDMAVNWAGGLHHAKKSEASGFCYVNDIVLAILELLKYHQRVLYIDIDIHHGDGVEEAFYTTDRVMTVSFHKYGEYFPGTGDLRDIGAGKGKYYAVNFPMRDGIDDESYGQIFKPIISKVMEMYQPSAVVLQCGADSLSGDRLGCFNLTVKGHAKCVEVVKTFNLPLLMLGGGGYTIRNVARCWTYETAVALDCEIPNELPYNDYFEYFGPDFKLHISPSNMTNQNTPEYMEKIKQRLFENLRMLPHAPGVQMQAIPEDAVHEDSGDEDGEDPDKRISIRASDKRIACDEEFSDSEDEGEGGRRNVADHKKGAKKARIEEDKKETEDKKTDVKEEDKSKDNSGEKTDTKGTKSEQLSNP

| Compound | DNA damage marker γH2AX (RRM2, γH2AX) | MM cell viability (L363 cells) | activity for HDAC2 (HDAC2) | activity against HDAC1 (HDAC1) | affinity for HDAC1 (HDAC1) | PARP cleavage [1] |
| --- | --- | --- | --- | --- | --- | --- |
| NC(=S)N/N=C/c1ncccc1N [triapine] | increased yH2AX | inhibited MM cell viability |  |  |  |  |
| Nc1ccccc1NC(=O)c1ccc(CNC(=O)OCc2cccnc2)cc1 [entinostat] |  |  | weak activity | strong activity | high affinity | observed |

Reference: US9670549B2, “Gene expression signatures of neoplasm responsiveness to therapy” (The United States of America, as represented by the …, priority 2011, dated 2017)
